Experimental findings from US4469868A, “Alkylimidazo[1,2-c]pyrazolo[3,4-e]pyrimidines” (Warner-Lambert Company, priority 1982, dated 1984) are described below.

Experiment [1] is described as follows: conditioned avoidance-escape procedure (modified pole-climb avoidance). The conditions noted are these: oral, male Wistar rat. The experiment is classed as in vivo. How it is done: In order to further assess their usefulness, representative compounds of the invention were tested in a conditioned avoidance-escape procedure. In this test*, an animal (male Wistar rat) is conditioned to respond to a stimulus in order to avoid an unpleasant electrical shock. Should the animals fail to give the response in order to avoid the shock, an escape route is available so that it can escape the shock once it is delivered. Preferably, compounds will show variations between the dose that will supress conditioned avoidance and the dose that will suppress the escape response.
*Modification of the pole-climb avoidance paradigm described in Ann. NY Acad. Sci., 740, (1957).

The nature of experiment [2]: Mouse Activity and Screen Test Procedure (MAST): inhibition of spontaneous locomotion and inverted screen test. The experiment is classed as in vivo, Swiss-Webster male mice. As to conditions: ip, 1 h, intraperitoneal, one hour prior to testing, mice, locomotion over 60 minutes, read-out: Dose at which an overall dose rating of A was obtained. An excerpt: The compound of the invention are new chemical substances which are useful as pharmaceutical agents for the treatment of psychoses. The antipsychotic activity of representative compounds of the invention was established by the Mouse Activity and Screen Test Procedure (MAST) described below.
ANIMALS: Nine unfasted Swiss-Webster male mice (Buckberg Labs) weighing 20-30 g are equally divided into three groups for each drug dose to be tested. That is, data for each dose level was generated by three separate groups of three mice each.
DRUGS: A minimum of three dose levels (10, 30, and 100 mg/kg) are tested for each drug. Treatments are administered intraperitoneally one hour prior to testing. All dosages are calculated as parent compound and given in volumes of […]. Compounds are dissolved or suspended in 0.2% Methocel. Control animals are injected with Methocel.
TESTING: A two part testing procedure is started one hour postinjection. First, the screen test is performed (see Pharmac. Biochem. Behav. 6, 351-353, 1977). Briefly this test consists of placing mice on individual wire screens which are then rotated 180 degrees at the start of a 60-second observation period. The number of mice falling off the inverted screen is recorded.
Immediately following the screen test, the final phase of testing is initiated by placing each group of three mice in one actophotometer (Life Sciences, 22, 1067-1076, 1978). The actophotometer consists of a cylindrical chamber whose center is occupied by another cylinder which contains the illumination for six photocells located on the perimeter of the chamber. Six light-beam interruptions equal one count. Locomotor activity is recorded by computer at 10-minute intervals for 60 minutes.
DATA: The data obtained from the screen test are expressed as percent of mice falling off the screen. Data derived from locomotor activity of drug treated mice are compared to the activity of vehicle treated animals and are expressed as percent inhibition of spontaneous locomotion. All percentages reported for inhibition of locomotion are based upon data accumulated for one hour. Both phases of testing are graded: A=60-100%; C=31-59%; and N=0-30%. An overall dose rating is obtained by the following criteria: […]
Utilizing this procedure, an overall dose rating of A was obtained for the noted compound at the indicated dose as reported in Table 1.

Test in experiment [3]: as above
It counts as in vivo, Swiss-Webster male mice. The conditions noted are these: po, Compound administered orally, mice, read-out: Dose at which an overall dose rating of A was obtained.

[4] abbreviates: suppression of conditioned avoidance, read-out: Oral ED50 Avoidance.
Where [5] appears, read: suppression of escape response, read-out: Oral ED50 Escape.

Structures can show the parent of a compound that is named as a salt. Where two headings read alike, the source gives them in different places.

For `CC1=Nc2c(C)nn(C)c2C2=NC(C)CN12` (racemic) [R1=CH3, R2=CH3, R3=CH3, R4=H, R5=CH3 (Racemate), 7,8-dihydro-1,3,5,8-tetramethyl-1H-imidazo[1,2-c]pyrazolo[3,4-e]pyrimidine], the figures for the ED50 in experiment [1] (setting [4]) and in experiment [1] (setting [5]) were 10 mg/kg and 32 mg/kg, respectively.
As for `CC1=Nc2c(C)nn(CC(F)(F)F)c2C2=NC(C)CN12` (centres unmarked) [R1=CF3CH2, R2=CH3, R3=CH3, R4=H, R5=CH3, 7,8-Dihydro-3,5,8-trimethyl-1-(2,2,2-trifluoroethyl)-1H-imidazo[1,2-c]pyrazolo[3,4-e]pyrimidine], the minimal effective dose in experiment [2] turned out to be 100 mg/kg.
For the molecule `CCn1nc(C)c2c1C1=NCCN1C(C)=N2` [R1=C2H5, R2=CH3, R3=CH3, R4=H, R5=H, 1-Ethyl-7,8-dihydro-3,5-dimethyl-1H-imidazo[1,2-c]pyrazolo[3,4-e]pyrimidine], the values for the ED50 in experiment [1] (setting [4]) and in experiment [1] (setting [5]) were 10 mg/kg and 28 mg/kg, respectively.
For the molecule `Cc1nn(C)c2c1N=CN1CCN=C21` [R1=CH3, R2=CH3, R3=H, R4=H, R5=H, 7,8-Dihydro-1,3-dimethyl-1H-imidazo[1,2-c]pyrazolo [3,4-e]pyrimidine], the minimal effective dose in experiment [2] was 100 mg/kg. Besides, the ED50 turned out to be 18 mg/kg in experiment [1] (setting [4]) and 54 mg/kg in experiment [1] (setting [5]).
As for `CCC1=Nc2c(C)nn(C)c2C2=NCCN12` [R1=CH3, R2=CH3, R3=C2H5, R4=H, R5=H, 5-Ethyl-7,8-dihydro-1,3-dimethyl-1H-imidazo[1,2-c]pyrazolo[3,4-e]pyrimidine], in experiment [3], the minimal effective dose was 90 mg/kg.
`CC1=Nc2c(C)nn(C)c2C2=N[C@H](C)CN12` [R1=CH3, R2=CH3, R3=CH3, R4=H, R5=CH3 (R-isomer), 7,8-Dihydro-1,3,5-trimethyl-1H-imidazo[1,2-c]-pyrazolo[3,4-e]pyrimidine (R-form)]: the ED50 in experiment [1] (setting [4]) and in experiment [1] (setting [5]) was under 65 mg/kg in each case.
For the molecule `CCCn1nc(C)c2c1C1=NC(C)CN1C(C)=N2` (centres unmarked) [R1=n-C3H7, R2=CH3, R3=CH3, R4=H, R5=CH3, 7,8-Dihydro-3,5,8-trimethyl-1-n-propyl-1H-imidazo[1,2-c]pyrazolo[3,4-e]pyrimidine], the minimal effective dose in experiment [2] is 100 mg/kg. The ED50 came to 37 mg/kg in experiment [1] (setting [4]) and 90 mg/kg in experiment [1] (setting [5]).
The matching figures for `CCC1=Nc2c(C)nn(C)c2C2=NCC(C)N12` (centres unmarked) [R1=CH3, R2=CH3, R3=C2H5, R4=CH3, R5=H, 7,8-Dihydro-5-ethyl-1,3,7-trimethyl-1H-imidazo[1,2-c]pyrazolo[3,4-e]pyrimidine]: 100 mg/kg, 35 mg/kg and 52 mg/kg.
Take `CC1=Nc2c(C)nn(C)c2C2=NC(C)C(C)N12` (centres unmarked) [R1=CH3, R2=CH3, R3=CH3, R4=CH3, R5=CH3, 7,8-dihydro-1,3,5,7,8-pentamethyl-1H-imidazo[1,2-c]pyrazolo[3,4-e]pyrimidine]: the minimal effective dose in experiment [2] worked out at 100 mg/kg. The results for the ED50 in experiment [1] (setting [4]) and in experiment [1] (setting [5]) were 20 mg/kg and 57 mg/kg, respectively.
As to `Cc1nn(C)c2c1N=C(C1CC1)N1CC(C)N=C21` (centres unmarked) [5-Cyclopropyl-7,8-dihydro-1,3,8-trimethyl-1H-imidazo[1,2-c]pyrazolo[3,4-e]pyrimidine], the minimal effective dose in experiment [2] is 100 mg/kg. Further, the results for the ED50 in experiment [1] (setting [4]) and in experiment [1] (setting [5]) were 11.5 mg/kg and 110 mg/kg, respectively.
Consider `CCc1nc2c(C)nn(C)c2c2nc(C)cn12` [5-Ethyl-1,3,8-trimethyl-1H-imidazo[1,2-c]pyrazolo[3,4-e]pyrimidine], for which the ED50 in experiment [1] (setting [4]) came out at 8 mg/kg; in experiment [1] (setting [5]), 45 mg/kg.
As to `CC1=Nc2c(C)nn(C)c2C2=N[C@@H](C)CN12` [R1=CH3, R2=CH3, R3=CH3, R4=H, R5=CH3 (S-isomer), 7,8-Dihydro-1,3,5,8-tetramethyl-1H-imidazo[1,2-c]pyrazolo[3,4-e]pyrimidine (S-form)], in experiment [2], the minimal effective dose amounted to 100 mg/kg. Also, the ED50 came out at 11.5 mg/kg in experiment [1] (setting [4]) and 20 mg/kg in experiment [1] (setting [5]).
On to `CC1=Nc2c(C)nn(C)c2C2=NC(C)(C)CN12` [R1=CH3, R2=CH3, R3=CH3, R4=H2, R5=(CH3)2, 7,8-Dihydro-1,3,5,8,8-pentamethyl-1H-imidazo[1,2-c]pyrazolo[3,4-e]pyrimidine], for which the figures for the ED50 in experiment [1] (setting [4]) and in experiment [1] (setting [5]) were 18 mg/kg and 120 mg/kg, respectively.
Consider `Cc1nn(C)c2c1N=CN1CC(C)N=C21` (centres unmarked) [R1=CH3, R2=CH3, R3=H, R4=H, R5=CH3, 7,8-Dihydro-1,3,8-trimethyl-1H-imidazo[1,2-c]pyrazolo[3,4-e]pyrimidine], for which the minimal effective dose in experiment [2] came to 100 mg/kg. For the same molecule, the results for the ED50 in experiment [1] (setting [4]) and in experiment [1] (setting [5]) were 18 mg/kg and 56 mg/kg, respectively.
As for `CCC1CN2C(C)=Nc3c(C)nn(C)c3C2=N1` (centres unmarked) [R1=CH3, R2=CH3, R3=CH3, R4=H, R5=C2H5, 8-ethyl-7,8-dihydro-1,3,5-trimethyl-1H-imidazo[1,2-c]pyrazolo[3,4-e]pyrimidine], the ED50 came out at 7.5 mg/kg in experiment [1] (setting [4]) and 32 mg/kg in experiment [1] (setting [5]).
Regarding `CC1=Nc2c(C)nn(C)c2C2=N[C@@H](C(C)C)CN12` [R1=CH3, R2=CH3, R3=CH3, R4=H, R5=i-C3H7 (S-isomer), 7,8-Dihydro-8-isopropyl-1,3,5-trimethyl-1H-imidazo[1,2-c]pyrazolo[3,4-e]pyrimidine dihydrochloride (S-form)], the minimal effective dose in experiment [2] came out at 100 mg/kg. Further, the ED50 in experiment [1] (setting [4]) turned out to be 20 mg/kg; in experiment [1] (setting [5]), 70 mg/kg.
With `CCn1nc(C)c2c1C1=NC(C)CN1C(C)=N2` (centres unmarked) [R1=C2H5, R2=CH3, R3=CH3, R4=H, R5=CH3, 7,8-Dihydro-1-ethyl-3,5,8-trimethyl-1H-imidazo[1,2-c]pyrazolo[3,4-e]pyrimidine], the results for the ED50 in experiment [1] (setting [4]) and in experiment [1] (setting [5]) were 5 mg/kg and 15 mg/kg, respectively.
As to `CC1=Nc2c(C)nn(C)c2C2=NCC(C)(C)N12` [R1=CH3, R2=CH3, R3=CH3, R4=(CH3)2, R5=H2, 7,8-Dihydro-1,3,5,7,7-pentamethyl-1H-imidazo[1,2-c]pyrazolo[3,4-e]pyrimidine], the ED50 turned out to be 32 mg/kg in experiment [1] (setting [4]) and 80 mg/kg in experiment [1] (setting [5]).
Turning to `CCC1=Nc2c(C)nn(CC)c2C2=NC(C)CN12` (centres unmarked) [R1=C2H5, R2=CH3, R3=C2H5, R4=H, R5=CH3, 1,5-Diethyl-7,8-dihydro-3,8-dimethyl-1H-imidazo[1,2-c]pyrazolo[3,4-e]pyrimidine], the minimal effective dose in experiment [2] is 100 mg/kg. Further, the ED50 in experiment [1] (setting [4]) came to 9 mg/kg; in experiment [1] (setting [5]), 50 mg/kg.
Take `CCC1=Nc2c(C)nn(C)c2C2=NC(C)CN12` (centres unmarked) [R1=CH3, R2=CH3, R3=C2H5, R4=H, R5=CH3, 7,8-Dihydro-5-ethyl-1,3,8-trimethyl-1H-imidazo[1,2-c]pyrazolo[3,4-e]pyrimidine]: the ED50 in experiment [1] (setting [4]) amounted to 6.4 mg/kg; in experiment [1] (setting [5]), 66 mg/kg.

As a reminder, the ED50 is the dose that gives a 50% effect, or the effect in half of the subjects.
